Experimental data as given in ChEMBL document CHEMBL1909046, “DrugMatrix in vitro pharmacology data”.
pIC50, pKi: −log10 of the molar value.

Tests used:
[1] = biological target: T1, Cholecystokinin receptor type A (Homo sapiens, UniProt P32238); assay type: cell membranes, Membrane; settings: 1321-n1; note: in other assays of this panel Not Active means under 50% inhibition at 10 µM
T1 sequence (P32238 whole entry): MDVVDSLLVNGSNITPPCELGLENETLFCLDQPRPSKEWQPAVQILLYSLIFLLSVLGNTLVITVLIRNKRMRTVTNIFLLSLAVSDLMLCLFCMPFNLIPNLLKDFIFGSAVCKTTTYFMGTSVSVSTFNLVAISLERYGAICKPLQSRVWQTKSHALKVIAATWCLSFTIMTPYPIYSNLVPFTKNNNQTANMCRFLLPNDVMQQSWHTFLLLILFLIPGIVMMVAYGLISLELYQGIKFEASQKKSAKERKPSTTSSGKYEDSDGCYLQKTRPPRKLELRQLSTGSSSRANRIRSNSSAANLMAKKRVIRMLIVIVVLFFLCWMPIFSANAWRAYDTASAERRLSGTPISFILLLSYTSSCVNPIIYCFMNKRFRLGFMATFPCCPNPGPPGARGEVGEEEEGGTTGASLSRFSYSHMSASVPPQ

[2] = DRUGMATRIX: GABAA, Flunitrazepam, Central radioligand binding (ligand: [3H] Flunitrazepam); assay type: cell membranes, Rattus norvegicus, Wistar, Brain, Membrane; settings: Not Active = under 50% inhibition at 10 µM; for pIC50: read-out: IC50; for pKi: read-out: Ki
[3] = biological target: T2, Nitric oxide synthase, inducible (Mus musculus, UniProt P29477); design: species or system Escherichia coli;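 note: inhibition of iNOS enzyme activity measured with L-arginine as substrate; in other assays of this panel Not Active means under 50% inhibition at 10 µM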
T2 sequence (P29477 whole entry): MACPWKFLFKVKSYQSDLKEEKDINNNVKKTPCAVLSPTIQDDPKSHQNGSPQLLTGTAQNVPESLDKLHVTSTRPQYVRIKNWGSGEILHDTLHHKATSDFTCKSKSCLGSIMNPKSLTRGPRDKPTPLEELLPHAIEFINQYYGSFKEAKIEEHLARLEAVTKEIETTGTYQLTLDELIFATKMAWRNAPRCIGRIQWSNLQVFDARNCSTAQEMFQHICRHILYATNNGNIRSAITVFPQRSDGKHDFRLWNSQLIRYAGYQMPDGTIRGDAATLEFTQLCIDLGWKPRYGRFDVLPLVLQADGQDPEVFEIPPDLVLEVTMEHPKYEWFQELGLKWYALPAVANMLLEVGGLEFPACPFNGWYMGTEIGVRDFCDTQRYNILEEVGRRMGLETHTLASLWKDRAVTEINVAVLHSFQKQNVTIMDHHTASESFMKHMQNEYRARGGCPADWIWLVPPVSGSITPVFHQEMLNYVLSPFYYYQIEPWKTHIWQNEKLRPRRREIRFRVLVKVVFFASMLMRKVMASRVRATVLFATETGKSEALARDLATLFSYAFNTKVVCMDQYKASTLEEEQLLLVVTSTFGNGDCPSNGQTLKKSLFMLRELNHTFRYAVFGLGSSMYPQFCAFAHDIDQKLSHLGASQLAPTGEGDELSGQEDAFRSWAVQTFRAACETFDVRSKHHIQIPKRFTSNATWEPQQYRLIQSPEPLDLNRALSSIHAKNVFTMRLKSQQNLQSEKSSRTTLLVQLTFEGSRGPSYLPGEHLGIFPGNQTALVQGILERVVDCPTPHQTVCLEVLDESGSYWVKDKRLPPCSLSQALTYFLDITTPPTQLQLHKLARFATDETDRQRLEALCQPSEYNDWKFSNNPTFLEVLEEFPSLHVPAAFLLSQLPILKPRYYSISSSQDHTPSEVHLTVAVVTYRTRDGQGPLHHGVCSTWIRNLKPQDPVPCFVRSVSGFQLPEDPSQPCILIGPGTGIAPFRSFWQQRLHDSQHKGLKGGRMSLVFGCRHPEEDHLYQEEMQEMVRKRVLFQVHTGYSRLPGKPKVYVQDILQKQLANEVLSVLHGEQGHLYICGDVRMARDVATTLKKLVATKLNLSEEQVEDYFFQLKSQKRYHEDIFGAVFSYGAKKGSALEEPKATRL

[4] = biological target: Platelet-activating factor receptor (Homo sapiens, UniProt P25105); assay type: tissue-based; note: in other assays of this panel Not Active means under 50% inhibition at 10 µM
Platelet-activating factor receptor, sequence (P25105 whole entry): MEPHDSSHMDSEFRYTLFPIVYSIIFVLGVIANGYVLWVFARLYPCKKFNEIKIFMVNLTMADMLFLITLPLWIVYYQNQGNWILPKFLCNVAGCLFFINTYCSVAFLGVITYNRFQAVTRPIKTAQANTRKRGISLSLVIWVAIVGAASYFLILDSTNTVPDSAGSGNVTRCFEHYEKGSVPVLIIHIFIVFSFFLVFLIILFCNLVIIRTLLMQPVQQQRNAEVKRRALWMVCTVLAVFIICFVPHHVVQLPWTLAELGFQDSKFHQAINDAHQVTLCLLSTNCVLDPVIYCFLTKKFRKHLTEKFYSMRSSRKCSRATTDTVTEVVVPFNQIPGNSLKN

[5] = biological target: Epidermal growth factor receptor (Homo sapiens, UniProt P00533); experiment: DRUGMATRIX: Protein Tyrosine Kinase, EGF Receptor enzyme inhibition (substrate: Poly(Glu:Tyr)); assay type: cell-based, Insect cells; settings: Not Active = under 50% inhibition at 10 µM; for pIC50: read-out: IC50
[6] = biological target: Receptor tyrosine-protein kinase erbB-2 (Homo sapiens, UniProt P04626); experiment: biochemical; assay type: cell-based, Insect cells; settings: for IC50: insect cells;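 for all read-outs here: inhibition of HER2 kinase enzyme activity, measured with Poly(Glu:Tyr) as the phosphorylation substrate; in other assays of this panel Not Active means under 50% inhibition at 10 µM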
Receptor tyrosine-protein kinase erbB-2, sequence (P04626 whole entry): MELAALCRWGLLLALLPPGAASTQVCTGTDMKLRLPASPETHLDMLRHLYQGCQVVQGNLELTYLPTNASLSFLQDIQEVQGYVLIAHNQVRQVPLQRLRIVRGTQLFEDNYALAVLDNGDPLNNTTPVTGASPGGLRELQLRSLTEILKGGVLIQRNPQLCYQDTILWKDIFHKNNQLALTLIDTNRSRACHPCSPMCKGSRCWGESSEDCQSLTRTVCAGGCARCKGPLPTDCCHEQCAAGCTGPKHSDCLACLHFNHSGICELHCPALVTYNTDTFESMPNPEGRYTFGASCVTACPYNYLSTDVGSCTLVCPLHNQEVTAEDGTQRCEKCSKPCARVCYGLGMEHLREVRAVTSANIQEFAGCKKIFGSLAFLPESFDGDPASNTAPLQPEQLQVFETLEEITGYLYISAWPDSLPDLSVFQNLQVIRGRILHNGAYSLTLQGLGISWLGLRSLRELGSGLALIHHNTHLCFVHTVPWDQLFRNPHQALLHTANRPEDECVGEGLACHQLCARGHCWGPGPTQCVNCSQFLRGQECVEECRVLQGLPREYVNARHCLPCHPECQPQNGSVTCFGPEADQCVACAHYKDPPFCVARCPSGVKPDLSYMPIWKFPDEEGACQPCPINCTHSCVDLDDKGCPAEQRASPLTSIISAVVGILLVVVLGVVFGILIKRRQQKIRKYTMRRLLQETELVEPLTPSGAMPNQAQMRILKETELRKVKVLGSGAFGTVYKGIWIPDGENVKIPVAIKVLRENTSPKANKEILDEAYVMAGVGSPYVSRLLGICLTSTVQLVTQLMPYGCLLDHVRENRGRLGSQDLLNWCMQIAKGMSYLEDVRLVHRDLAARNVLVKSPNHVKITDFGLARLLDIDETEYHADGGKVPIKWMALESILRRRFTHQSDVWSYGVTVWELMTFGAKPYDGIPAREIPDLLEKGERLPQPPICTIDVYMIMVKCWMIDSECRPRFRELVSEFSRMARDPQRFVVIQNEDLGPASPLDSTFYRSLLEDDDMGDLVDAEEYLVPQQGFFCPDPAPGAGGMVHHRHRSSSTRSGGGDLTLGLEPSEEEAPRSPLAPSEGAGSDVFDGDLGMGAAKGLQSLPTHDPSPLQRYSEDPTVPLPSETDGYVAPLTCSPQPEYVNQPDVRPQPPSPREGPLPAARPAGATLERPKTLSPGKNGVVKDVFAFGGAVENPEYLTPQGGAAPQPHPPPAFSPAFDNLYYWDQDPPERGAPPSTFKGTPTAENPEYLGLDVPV

[7] = biological target: Estrogen receptor beta (Homo sapiens, UniProt Q92731); settings: sf9; note: in other assays of this panel Not Active means under 50% inhibition at 10 µM
Estrogen receptor beta, sequence (Q92731 whole entry): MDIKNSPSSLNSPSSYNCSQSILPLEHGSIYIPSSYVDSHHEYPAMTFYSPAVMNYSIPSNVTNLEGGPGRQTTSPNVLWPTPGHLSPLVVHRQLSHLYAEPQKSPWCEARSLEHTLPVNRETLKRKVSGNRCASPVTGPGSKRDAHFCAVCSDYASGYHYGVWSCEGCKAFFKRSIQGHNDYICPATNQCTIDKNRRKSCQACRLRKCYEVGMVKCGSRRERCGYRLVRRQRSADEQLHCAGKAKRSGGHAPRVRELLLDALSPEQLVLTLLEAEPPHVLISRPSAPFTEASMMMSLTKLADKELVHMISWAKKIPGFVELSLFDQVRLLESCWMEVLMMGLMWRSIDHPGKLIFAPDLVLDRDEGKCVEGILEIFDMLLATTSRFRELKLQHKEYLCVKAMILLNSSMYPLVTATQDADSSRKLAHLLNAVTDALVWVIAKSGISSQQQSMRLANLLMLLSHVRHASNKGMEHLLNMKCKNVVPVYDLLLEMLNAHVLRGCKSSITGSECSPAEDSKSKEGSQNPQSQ

Compound | IC50 [1] | IC50 [2] | Ki [2] | IC50 [3] | IC50 [4] | pIC50 [5] | pIC50 ([6]; read-out: IC50) | IC50 [7] | IC50 ([5]; insect cells) | IC50 [6] | pIC50 [2] | pKi [2] | Ki [1] | Ki [3] | Ki [4] | pIC50 ([5]; insect cells) | Ki [7]
CCOc1nc2cccc(C(=O)O)c2n1Cc1ccc(-c2ccccc2-c2nnn[nH]2)cc1 | Not Active | Not Active | Not Active | Not Active | Not Active | 5.48 | 5.23 | Not Active |  |  |  |  |  |  |  |  | 
O=C(O)CCCc1cccs1 | Not Active | Not Active | Not Active | Not Active | Not Active |  |  | Not Active | Not Active | Not Active |  |  |  |  |  |  | 
COc1ccccc1N | Not Active | Not Active | Not Active | Not Active | Not Active |  |  |  | Not Active | Not Active |  |  |  |  |  |  | 
O=C(c1ccccc1F)N1CCC(Cc2ccccc2)CC1 | Not Active | Not Active | Not Active | Not Active | Not Active |  |  | Not Active | Not Active | Not Active |  |  |  |  |  |  | 
Cc1c(O)cccc1C(=O)N[C@@H](CSc1ccccc1)[C@H](O)CN1C[C@H]2CCCC[C@H]2C[C@H]1C(=O)NC(C)(C)C | Not Active | Not Active | Not Active | Not Active | Not Active | 4.25 |  |  |  | Not Active |  |  |  |  |  |  | 
NC12CC3CC(CC(C3)C1)C2 [AMANTADINE] | Not Active | Not Active | Not Active | Not Active | Not Active |  |  |  | Not Active | Not Active |  |  |  |  |  |  | 
CC(C)c1c(C(=O)Nc2ccccc2)c(-c2ccccc2)c(-c2ccc(F)cc2)n1CC[C@@H](O)C[C@@H](O)CC(=O)O [ATORVASTATIN] | Not Active | Not Active | Not Active | Not Active | Not Active |  |  |  | Not Active | Not Active |  |  |  |  |  |  | 
COc1cc(OC)c(C(=O)CCCN2CCCC2)c(OC)c1 [BUFLOMEDIL] | Not Active | Not Active | Not Active | Not Active | Not Active |  |  |  | Not Active | Not Active |  |  |  |  |  |  | 
Cn1c(=O)c2c(ncn2C)n(C)c1=O [CAFFEINE] | Not Active | Not Active | Not Active | Not Active | Not Active |  |  |  |  | Not Active |  |  |  |  |  |  | 
CC(C)NCC(O)c1ccccc1Cl (stereo unspecified) [CLORPRENALINE] | Not Active | Not Active | Not Active | Not Active | Not Active |  |  |  | Not Active | Not Active |  |  |  |  |  |  | 
C[S+](C)[O-] [DIMETHYL SULFOXIDE] | Not Active | Not Active | Not Active | Not Active | Not Active |  |  |  | Not Active | Not Active |  |  |  |  |  |  | 
CC(O)(P(=O)(O)O)P(=O)(O)O [ETIDRONIC ACID] | Not Active | Not Active | Not Active | Not Active | Not Active |  |  |  | Not Active | Not Active |  |  |  |  |  |  | 
CCOC(=O)c1ncn2c1CN(C)C(=O)c1cc(F)ccc1-2 [FLUMAZENIL] | Not Active |  |  | Not Active | Not Active |  |  |  | Not Active | Not Active | 8.41 | 8.50 |  |  |  |  | 
O=C(O)P(=O)(O)O [FOSCARNET] | Not Active | Not Active | Not Active | Not Active | Not Active |  |  |  | Not Active | Not Active |  |  |  |  |  |  | 
O=c1c(-c2ccc(O)cc2)coc2cc(O)cc(O)c12 [GENISTEIN] | Not Active | Not Active | Not Active | Not Active | Not Active |  |  |  |  | Not Active |  |  |  |  |  |  | 
C[N+](C)(C)C[C@H](O)CC(=O)[O-] [LEVOCARNITINE] | Not Active | Not Active | Not Active | Not Active | Not Active |  |  |  | Not Active | Not Active |  |  |  |  |  |  | 
C[C@H]1COc2c(N3CCN(C)CC3)c(F)cc3c(=O)c(C(=O)O)cn1c23.C[C@H]1COc2c(N3CCN(C)CC3)c(F)cc3c(=O)c(C(=O)O)cn1c23.O [LEVOFLOXACIN] | Not Active | Not Active | Not Active | Not Active | Not Active |  |  |  | Not Active | Not Active |  |  |  |  |  |  | 
CCn1cc(C(=O)O)c(=O)c2cc(F)c(N3CCNC(C)C3)c(F)c21 (stereo unspecified) [LOMEFLOXACIN] | Not Active | Not Active | Not Active | Not Active | Not Active |  |  |  | Not Active | Not Active |  |  |  |  |  |  | 
CN(C)C(=N)NC(=N)N [METFORMIN] | Not Active | Not Active | Not Active | Not Active | Not Active |  |  |  | Not Active | Not Active |  |  |  |  |  |  | 
CN(C)C(=O)Oc1cccc([N+](C)(C)C)c1.[Br-] [NEOSTIGMINE BROMIDE] | Not Active | Not Active | Not Active | Not Active | Not Active |  |  |  | Not Active | Not Active |  |  |  |  |  |  | 
CN1C(=O)CN=C(c2ccccc2)c2cc([N+](=O)[O-])ccc21 [NIMETAZEPAM] | Not Active |  |  | Not Active | Not Active |  |  |  | Not Active | Not Active | 6.98 | 7.07 |  |  |  |  | 
COc1ccc2c(c1OC)C(=O)O[C@@H]2[C@H]1c2c(cc3c(c2OC)OCO3)CCN1C [NOSCAPINE] | Not Active | Not Active | Not Active | Not Active | Not Active |  |  |  | Not Active | Not Active |  |  |  |  |  |  | 
N=C(N)c1ccc(OCCCCCOc2ccc(C(=N)N)cc2)cc1 [PENTAMIDINE] | Not Active | Not Active | Not Active | Not Active | Not Active |  |  |  | Not Active | Not Active |  |  |  |  |  |  | 
NNCCc1ccccc1 [PHENELZINE] | Not Active | Not Active | Not Active | Not Active | Not Active |  |  |  | Not Active | Not Active |  |  |  |  |  |  | 
CCCNC(C)C(=O)Nc1ccccc1C (stereo unspecified) [PRILOCAINE] | Not Active | Not Active | Not Active | Not Active | Not Active |  |  |  | Not Active | Not Active |  |  |  |  |  |  | 
C[C@]12C=CC(=O)C=C1CC[C@H]1[C@@H]3C[C@@H](O)[C@](O)(C(=O)CO)[C@@]3(C)C[C@H](O)[C@@]12F [TRIAMCINOLONE] | Not Active | Not Active | Not Active | Not Active | Not Active |  |  |  | Not Active | Not Active |  |  |  |  |  |  | 
CCN(C(C)=O)c1cccc(-c2ccnc3c(C#N)cnn23)c1 [ZALEPLON] | Not Active |  |  | Not Active | Not Active |  |  |  | Not Active | Not Active | 6.39 | 6.47 |  |  |  |  | 
COLISTIN | Not Active | Not Active | Not Active | Not Active | Not Active |  |  | Not Active |  |  |  |  | Not Active | Not Active | Not Active | 5.82 | Not Active
